These results are taken from US20230125667A1, “NOVEL TDZD ANALOGS AS AGENTS THAT DELAY, PREVENT, OR REVERSE AGE-ASSOCIATED DISEASES AND AS ANTI-CANCER AND ANTILEUKEMIC AGENTS” (United States Government as represented by the Department …, priority 2020, published 2023).

The test system of experiment [1] is SH-SY5Y-APPSw cells. In words: Thioflavin-T staining of amyloid-like aggregates in SH-SY5Y-APPSw cells. Format: cell-based, human. The protocol:
Several TDZD-conjugated drugs (putative GSK-3 inhibitors) were evaluated for their ability to reduce accumulation of protein aggregates, and for protection against aggregation-associated end-points in the following model systems: (i.) SH-SY5Y-APPSw, a neuroblastoma cell line expressing the Swedish mutation of Amyloid Precursor Protein (APPSw), and thus predisposed to form β-amyloid deposits; (ii.) C. elegans strain CL4176, a model of Alzheimer-like amyloidopathy that can be induced to express human Aβ1-42 in muscle, or may express it at a lower level without induction; (iii.) C. elegans strain AM141, a model of Huntington-like polyglutamine aggregation that constitutively expresses Q40::YFP (a tract of 40 glutamines fused in-frame to yellow fluorescent protein) in muscle cells and forms aggregates progressively with adult aging. The TDZD analog PNR-962 (a putative GSK-3 inhibitor) and other related compounds (not shown) were protective in all aggregation assays.
First, the effects of TDZD analogues were tested on the human neuroblastoma cell line SH-SY5Y-APPSw, a model of Alzheimer-like amyloid aggregation expressing the “Sw” mutant form of Amyloid Precursor Protein, APP. These drugs all produced significant reductions in amyloid-like aggregates, by 30-50% as quantified by thioflavin-T staining intensity (data for PNR-962 are shown in FIG. 4). Modified TDZD-8 analogues PNR-962 and BSK-179 are more anti-aggregative than TDZD-8, lowering total amyloid-staining intensity by a further 14% (data not shown).
Following previously described experimental procedures (Liu, et al. (2005). S100B-induced microglial and neuronal IL-1 expression is mediated by cell type-specific transcription factors. Journal of Neurochemistry. 92(3): 546-553), SH-SY5Y-APPSw neuronal cells expressing an aggregation-prone double mutant of amyloid precursor protein (APPSw) were cultured in DMEM plus 10% (v/v) fetal bovine serum (FBS) at 37° C. Cells were suspended in trypsin/EDTA and rinsed in PBS prior to re-plating or harvesting. […] Human neuroblastoma cells were treated with PNR962, either simultaneous with sAPPα or beginning 1 h prior to sAPPα addition (pre-treatment) in order to ascertain the protective benefits of PNR962 on protein aggregation in human neuroblastoma cell lines. A similar experimental procedure was followed to examine the effect of treatment with these analogs on non-neuronal human cells, exposing human embryonic kidney cells (HEK) that express tau-like aggregates (found in AD-associated diseases) to 0.001, 0.01, and 1-μM doses of TDZD-8 and its analogues.
To observe the protective effects of the novel TDZD analogs on protein aggregation in SY5Y-APPSw cells, using DMEM medium containing 10% fetal calf serum in […], cells were cultured at 37′C for 26 hrs allowing cells to approximately double in number. After 48 h of cell incubation in the presence of specified concentrations of drug or vehicle, cells were fixed 15 min in formaldehyde (4% v/v), washed, and stained 20 min at ˜22° C. in a dark container with 0.1% w/v Thioflavin T mixed with DAPI (1 μg/ml; Life Technologies, Grand Island, N.Y., USA). […] The intensity of aggregate/thioflavin-T fluorescence per field was quantified via an Image J plug-in developed in-house, and normalized to the number of DAPI^+ nuclei counted per field, to obtain an average intensity of aggregates per cell for each treatment.

In experiment [2] the test system is wild-type nematodes. The experiment in a line: Lifespan of C. elegans. Format: in vivo. The conditions noted are these: FIG. 8. Here is the method:
It was previously shown that several interventions that improve age-associated phenotypes also modulate lifespan (Ayyadevara et al. (2017) Antioxid Redox Signal. 27(17): 1383-1396; Ayyadevara et al. (2005) Aging Cell. 4(5): 257-271). The lifespan was assessed in C. elegans, either mock-treated or exposed to TDZD analogues. PNR-962 and BSK-179 extended the lifespan of wild-type nematodes to an identical degree, increasing the mean by roughly 25-30% (P<0.001; FIG. 8).
To obtain synchronized eggs for lifespan studies, worms were maintained for 2 generations, free of contamination and starvation. Healthy, well-fed adult worms from the 2nd generation were then lysed, and eggs placed on plates with appropriate doses of TDZD analogue PNR962, or DMSO vehicle alone (for a final concentration of 0.02% v/v DMSO). At the L4 larval stage, worms were transferred daily to fresh plates for 7 days, and thereafter on alternate days until all the worms are dead. C. elegans that moved spontaneously or responded to gentle prodding were scored as alive. For the mortality computation, worms that were lost for reasons other than natural death were censored. The methods described were adopted from previously described experimental procedures (Ayyadevara, et al. (2016) PIP3-binding proteins promote age-dependent protein aggregation and limit survival in C. elegans. Oncotarget, 7(31): 48870-48886; Bharill, et al. (2013) Extreme Depletion of PIP3 Accompanies the Increased Life Span and Stress Tolerance of PI3K-null C. elegans Mutants. Frontiers in Genetics, 4).

Experiment [3] concerns tau hyperphosphorylation. In words: Tau hyperphosphorylation in rat cortical cells. Format: cell-based. The note with it: FIG. 23. The protocol:
Microtubule assembly involves stable tau binding to other proteins in the complex, including tubulin. Hyperphosphorylated tau is readily sequestered into aggregates and generates intracellular neurofibrillary tangles (“tau tangles”). […] The top drugs were tested for impact on tau hyperphosphorylation in rat cortical cells (FIG. 23).
Primary cultures were established from cerebral cortex of E18 rats; under serum-free conditions (Neurobasal/B27) these cultures contain ˜85% neurons, with the remainder comprising astrocytes (˜12% and microglia ˜3%). At the […], triplicate cultures were exposed to the test compounds at the indicated concentrations; a separate triplicate was exposed to vehicle (0.5% DMSO final concentration). After 24 h, cultures were washed once with ice-cold PBS and then scraped in RIPA buffer containing inhibitors of proteases and phosphatases. Lysates were centrifuged at 14,000 g at 4° C. for 7 min. Supernatants were removed and stored at −80° C. after removal of small aliquots for determination of protein concentration by BCA. Samples equilibrated for total protein were analyzed by Wes™ capillary-gel immunodetection (ProteinSimple) using the AT8 clone of anti-phosphoTau (Invitrogen MN 1020) or total Tau (ABclonal A0002). Detected antigen was calculated by peak area (automated peak fit), and values are reported as AT8 normalized to total Tau.

For the compound `O=c1sn(CCI)c(=O)n1Cc1ccccc1` [PNR-962], the protein aggregation entry in experiment [1] (5 μM (FIG. 4)) is “reduces protein aggregation”. In experiment [1] (data not shown), the “further lowering of total amyloid-staining intensity relative to TDZD-8” value was 14%. Moreover, the lifespan result in experiment [2] is “increased”. In addition, in experiment [3], the tau hyperphosphorylation entry was “suppression of tau hyperphosphorylation”.
